Here are results for one compound from US12484574B2, “Agent for promoting undifferentiation and cryoprotective agent using aprotic zwitterion” (JAPAN SCIENCE AND TECHNOLOGY AGENCY, priority 2019, dated 2025).

“Also recorded” adds a separate entry of the source.

In data set [1] the test system is Mouse fibroblasts C57BL/6-GFP. The data set can be described thus: Cell freezing, slow freezing method, viable cell count after thawing (Example 2). The conditions noted are these: 5% by weight in H2O; frozen to −80° C. at −1° C./min; FIG. 4. The data set is classed as cell-based. How it is done:
CultureSure® cryopreservation solution (manufactured by FUJIFILM Wako Pure Chemical Corp.) (hereinafter, referred to as “FM”) • H2O • 5% by weight of DMSO/H2O • 5% by weight of OE2imC3C/H2O
The cells to be frozen (two types) were centrifugally recovered by trypsin treatment and diluted with Dulbecco's modified Eagle medium (DMEM), and each cell concentration was measured. The types and cell concentrations of the cells are as follows. • Human skin fibroblasts 5.0×10^5 cells/100 μl • Mouse fibroblasts C57BL/6-GFP 5.0×10^5 cells/100 μl
Subsequently, the cells of each type were dispensed at 1 ml/tube to 1.5 ml tubes, centrifuged, suspended in 100 μl each of the cryopreservation solutions described above, and frozen at a cooling temperature of −80° C. at a cooling rate of −1° C./min using a cell freezing container Mr. Frosty®.
1 ml of a medium was added to the cryopreservation vial for thawing, and a supernatant was removed by centrifugation. Subsequently, the cells obtained by centrifugation were resuspended in a medium, followed by the measurement of a viable cell count. Then, culture was started in a 6-well plate.

A further data set deals with Wild-type zebrafish AB*. The data set can be described thus: Influence on development of zebrafish. The data set is classed as in vivo. As to conditions: fertilized eggs cultured 1.5 to 24 hours. How it is done:
All experiments were conducted based on a protocol approved by the animal experiment committee of Kanazawa University. Wild-type zebrafish AB* was raised at 28.5° C. with 14-hour light/10-hour dark cycles in a circulating water system. The medium used was E3 medium (5 mM NaCl, 0.17 mM KCl, 0.33 mM CaCl2, 0.33 mM MgSO4). The medium was supplemented with 1%, 2%, 5% or 10% DMSO or HLS (OE2imC3C). For each test group, eggs were fertilized and then cultured for 1.5 to 24 hours. The embryos thus cultured were washed with E3 medium twice and treated with 1-phenyl-2-thiourea (FUJIFILM Wako Pure Chemical Corp.) in order to prevent pigmentation. The embryos were stained with 0.6 mg/mL o-dianisidine (Tokyo Chemical Industry Co., Ltd.) for 15 minutes and fixed in 4% paraformaldehyde (FUJIFILM Wako Pure Chemical Corp.). The embryos were washed with phosphate-buffered saline containing 0.1% Tween (Sigma-Aldrich Co. LLC) twice. The survival rate was similar between DMSO and HLS (OE2imC3C) up to the 2% addition groups, whereas the survival rate differed largely therebetween in the 5% addition groups.

Another data set deals with Human skin fibroblasts. The data set can be described thus: Cell freezing, rapid freezing method, viable cell count (Example 4). The data set is classed as cell-based. How it is done: (§1) Human ES cell and human iPS cell cryopreservation solution DAP213 (manufactured by ReproCELL Inc.) • 75% by weight of OE2imC3C/H2O • 50% by weight of OE2imC3C/H2O • 25% by weight of OE2imC3C/H2O
(§2) The cells to be frozen (two types) were centrifugally recovered by trypsin treatment and diluted with Dulbecco's modified Eagle medium (DMEM), and each cell concentration was measured. The types and cell concentrations of the cells are as follows. • Human skin fibroblasts 8.2×10^5 cells/100 μl (N=3) • Mouse fibroblasts C57BL/6-GFP 1.2×10^6 cells/100 μl (N=3)
(§3) Subsequently, the cells of each type were dispensed at 1 ml/tube to 1.5 ml tubes, centrifuged, suspended in 100 μl each of the cryopreservation solutions described above, and immediately thereafter rapidly frozen in liquid nitrogen within 10 to 15 seconds. Then, the cells were preserved for 3 days in a liquid nitrogen tank.
(§4) The cryopreservation vial was rapidly thawed with 1 ml of a medium, and a supernatant was removed by centrifugation. Subsequently, the cells obtained by centrifugation were resuspended in a medium, followed by the measurement of a viable cell count. Then, culture was started in a 6-well plate.
(§5) 24 hours after the start of culture, the viable cell count was measured.

Data set [2] has as its system Mouse fibroblasts C57BL/6-GFP. The data set is described as above. The data set is classed as cell-based. How it is done:
as §1, §2, §3, §4, §5

The nature of data set [3]: Glass transition temperature and heat quantity by differential scanning calorimetry (DSC). The format is physicochemical. As to conditions: 10 wt % in purified water, cooling −1° C./min, heating 5° C./min. How it is done:
The glass transition temperature and the heat quantity were determined by differential scanning calorimetry (DSC). The measurement was performed with a cooling rate set to −1° C./min an d a heating rate set to 5° C./min.
Background: DSC measures the heat that a sample takes up or gives off during a temperature scan.

As to `COCCOCCn1cc[n+](CCCC(=O)[O-])c1` [OE2imC3C], the “viable cell count after thawing” value was “larger viable cell count than that in the case of using conventional DMSO” in data set [1]; “comparable to that of the commercially available cryopreservation solution DAP213; also recorded: a lower concentration (25% by weight) offered a higher survival rate of the cells” in the data set on Human skin fibroblasts (75, 50, 25% by weight in H2O, rapidly frozen in liquid nitrogen, preserved 3 days, FIG. 7); “comparable to that of the commercially available cryopreservation solution DAP213; also recorded: a lower concentration (25% by weight) offered a higher survival rate of the cells” in data set [2] (75, 50, 25% by weight in H2O, rapidly frozen in liquid nitrogen, preserved 3 days, FIG. 8). The Survival rate is given as 27/27 with Wild-type zebrafish AB* (Concentration 1 % (v/v for DMSO, w/v for HLS) in E3 medium); 27/27 in the data set on Wild-type zebrafish AB* (Concentration 2 % (v/v for DMSO, w/v for HLS) in E3 medium); 27/27 with Wild-type zebrafish AB* (Concentration 5 % (v/v for DMSO, w/v for HLS) in E3 medium); 0/27 with Wild-type zebrafish AB* (Concentration 10 % (v/v for DMSO, w/v for HLS) in E3 medium). Further, the “viable cell count 24 hours after the start of culture” value in the data set with Human skin fibroblasts (rapid freezing method, FIG. 9) is given as “reached a high value, albeit being inferior to the commercially available cryopreservation solution DAP213”; in data set [2] (rapid freezing method, FIG. 10), “reached a high value, albeit being inferior to the commercially available cryopreservation solution DAP213”. For the same compound, in data set [3], the Heat quantity is -198.7 J/g. In data set [3], this compound displayed a Tg of −85.69 °C.
